Data set [1] can be described thus: Acute toxicity (LD50) in mouse. The class given is in vivo. The conditions noted are these: in vivo, 10 days observation. Here is the method:
(§1) Acute toxicity was studied in male and female mice of Swiss stock, and in male and female albino rats of Wistar stock, by administering the active principle orally, intravenously and intramuscularly.
(§2) For each method of administration, doses in geometrical progression were administered to 10 animals for each dose over a period of observation of 10 days.
(§3) On termination of the period of observation, the LD50 and the relative reliability limits were calculated by the method of Litchfield and Wilcoxon (Pharmacol. Exp. Ther., 96-19, 1949).

Data set [2] can be described thus: Acute toxicity (LD50) in rat. The class given is in vivo. The conditions noted are these: in vivo, 10 days observation. The procedure:
as §1, §2, §3

For data set [3], the system named is mice of Swiss stock. Kind of data set: Acute toxicity (LD50) in mouse. The conditions noted are these: 10 days observation; for LD50, mouse, intram. admin.: intramuscular; for LD50, mouse, intrav. admin.: intravenous; for LD50, mouse, oral admin.: Litchfield and Wilcoxon. In kind it is in vivo. Here is the method: as §1, §2, §3
The subject of data set [4] is albino rats of Wistar stock. The data set is described as follows: Acute toxicity (LD50) in rat. In kind it is in vivo. The conditions noted are these: 10 days observation; for LD50, rat, intram. admin.: intramuscular; for LD50, rat, intrav. admin.: intravenous. Here is the method: as §1, §2, §3
Data set [5] concerns gastric ulcers induced by the ligature of the pylorus. Kind of data set: Gastric ulcers induced by ligature of the pylorus. The class given is in vivo, rat (Sprague Dawley). The conditions noted are these: oral, one hour after operation; compounds and ranitidine 1, 3, 10, 30 mg/kg; cimetidine 3, 10, 30, 100 mg/kg. The procedure:
To study the effect of the new compounds according to the present invention, 50 male and female rats of Sprague Dawley stock weighing approximately 200 grams were used for each compound examined.
The animals, under diet, were subjected to legature of the pylorus.
One hour after this operation, the animals were treated orally either with doses of 1, 3, 10 and 30 mg/kg of the examined compounds, or with doses of 3, 10, 30 and 100 mg/kg of cimetidine, or with doses of 1, 3, 10 and 30 mg/kg of ranitidine.

Setting [6] is: im, intramuscular, read-out: LD50, mouse, intram. admin.
The mark [7] stands for this setting: intravenous, read-out: LD50, mouse, intrav. admin.
The mark [8] stands for this setting: oral, Litchfield and Wilcoxon, read-out: LD50, mouse, oral admin.
[9] abbreviates: im, intramuscular, read-out: LD50, rat, intram. admin.
Where [10] appears, read: intravenous, read-out: LD50, rat, intrav. admin.
[11] abbreviates: oral, read-out: LD50, rat, oral admin.

A word on the LD50: it is the dose at which mortality reaches 50%. For `CN(C)Cc1ccc(CSCCNC(=C[N+](=O)[O-])N2CCCCC2)o1`, the LD50 at 240 h amounted to 300 mg/kg in data set [1] (setting [6]); 90 mg/kg in data set [1] (setting [7]); 2600 mg/kg in data set [1] (setting [8]); 2100 mg/kg in data set [2] (setting [9]); 100 mg/kg in data set [2] (setting [10]).

Regarding `CN(C)Cc1ccc(CSCCNC(=C[N+](=O)[O-])N[C@H]2C[C@H]3CC[C@@H]2C3)o1` (relative stereo) [AU/019], the LD50 at 240 h in data set [1] (setting [6]) was determined as 300 mg/kg; in data set [1] (setting [7]), 100 mg/kg; in data set [1] (setting [8]), 2600 mg/kg; in data set [2] (setting [9]), 2100 mg/kg; in data set [2] (setting [10]) it was 120 mg/kg.

As to `CC1CCN(C(=C[N+](=O)[O-])NCCSCc2ccc(CN(C)C)o2)CC1` [AU/002, 1-N-[2-[[5-[(dimethylamino)methyl]furfuryl]thio]ethyl]amino-1-(4-methyl-piperidino)-2-nitro-ethene], the LD50 at 240 h in data set [1] (setting [6]) came to 320 mg/kg; in data set [1] (setting [7]), 100 mg/kg; in data set [1] (setting [8]), 2700 mg/kg; in data set [2] (setting [9]), 2000 mg/kg; in data set [2] (setting [10]), 100 mg/kg.

As to `CCN1CCCC(NC(=C[N+](=O)[O-])NCCSCc2ccc(CN(C)C)o2)C1` (stereo not drawn) [AU/003], the LD50 at 240 h in data set [1] (setting [6]) was determined as 300 mg/kg; in data set [1] (setting [7]) it was 90 mg/kg; in data set [1] (setting [8]), 2800 mg/kg; in data set [2] (setting [9]) it was 2200 mg/kg; in data set [2] (setting [10]), 100 mg/kg.

As for `CN(C)Cc1ccc(CSCCNC(=C[N+](=O)[O-])N2CCN(CCO)CC2)o1` [AU/004, 1-N-[2-[[5-[(dimethylamino)methyl]furfuryl]thio]ethyl]-amino-1-4-(2-hydroxyethyl)-1-piperazino ethene], the median lethal dose (LD50) at 240 h in data set [1] (setting [6]) was determined as 300 mg/kg; in data set [1] (setting [7]) it was 95 mg/kg; in data set [1] (setting [8]), 2700 mg/kg; in data set [2] (setting [9]), 2000 mg/kg; in data set [2] (setting [10]), 110 mg/kg.

In the case of `CN(C)Cc1ccc(CSCCNC(=C[N+](=O)[O-])N2CCC(Cc3ccccc3)CC2)o1` [AU/005, 1-N-[2-[[5-[(dimethylamino)methyl]furfuryl]thio]ethyl]-amino-1-(4-benzyl-piperidino)-2-nitroethene], the LD50 at 240 h in data set [1] (setting [6]) turned out to be 300 mg/kg; in data set [1] (setting [7]), 95 mg/kg; in data set [1] (setting [8]), 2700 mg/kg; in data set [2] (setting [9]) it was 2100 mg/kg; in data set [2] (setting [10]) it was 110 mg/kg; in data set [2] (setting [11]), 5500 mg/kg.

Regarding `CN(C)Cc1ccc(CSCCNC(=C[N+](=O)[O-])N2CCN(Cc3ccccc3)CC2)o1` [AU/006, 1-N-[2-[[5-[(dimethylamino)methyl]furfuryl]thio]ethyl]amino-1-(4-benzyl-piperazino)-2-nitroethene], the LD50 at 240 h in data set [1] (setting [6]) was determined as 300 mg/kg; in data set [1] (setting [7]), 90 mg/kg; in data set [1] (setting [8]), 2700 mg/kg; in data set [2] (setting [9]) it was 2100 mg/kg; in data set [2] (setting [10]) it was 100 mg/kg.

As for `CN(C)Cc1ccc(CSCCNC(=C[N+](=O)[O-])N2CC2)o1` [AU/007, 1-N-[2-[[5-[(dimethylamino)methyl]furfuryl]thio]ethyl]amino-1-ethyleneimino-2-nitroethene], the LD50 at 240 h in data set [1] (setting [6]) was determined as 310 mg/kg; in data set [1] (setting [7]) it was 100 mg/kg; in data set [1] (setting [8]), 2800 mg/kg; in data set [2] (setting [9]) it was 2100 mg/kg; in data set [2] (setting [10]) it was 100 mg/kg.

As to `CN(C)Cc1ccc(CSCCNC(=C[N+](=O)[O-])N2CCC2)o1` [AU/008, 1-N-[2-[[5-[(dimethylamino)methyl]furfuryl]thio]ethyl]amino-1-cyclopropyleneimino-2-nitroethene], the LD50 at 240 h worked out at 310 mg/kg in data set [1] (setting [6]); 100 mg/kg in data set [1] (setting [7]); 2600 mg/kg in data set [1] (setting [8]); 2200 mg/kg in data set [2] (setting [9]); 100 mg/kg in data set [2] (setting [10]).

As for `CN(C)Cc1ccc(CSCCNC(=C[N+](=O)[O-])NC2CCCCC2)o1` [AU/009, N-[2-[[5-[(dimethylamino)methyl]furfuryl]thio]ethyl]-N'-(cyclohexyl)-2-nitro-1,1-ethenediamine], the median lethal dose (LD50) at 240 h in data set [1] (setting [6]) was 300 mg/kg; in data set [1] (setting [7]), 100 mg/kg; in data set [1] (setting [8]), 2600 mg/kg; in data set [2] (setting [9]) it was 2200 mg/kg; in data set [2] (setting [10]), 110 mg/kg.

`CN(C)Cc1ccc(CSCCNC(=C[N+](=O)[O-])NC2=CCC=CC2)o1` [AU/010, N-[2-[[5-[(dimethylamino)methyl]furfuryl]thio]ethyl]-N'-(1,4-ciclohexadienyl)-2-nitro-1,1-ethenediamine]: in data set [3], the “LD50, mouse, intram. admin.” value came out at 310 mg/kg; the “LD50, mouse, intrav. admin.” value was 95 mg/kg; the “LD50, mouse, oral admin.” value is 2700 mg/kg. In addition, in data set [4], the “LD50, rat, intram. admin.” value stood at 2200 mg/kg and the “LD50, rat, intrav. admin.” value came to 110 mg/kg.

In the case of `CN(C)Cc1ccc(CSCCNC(=C[N+](=O)[O-])NCC2=CCC=CC2)o1` [AU/011, N-[2-[[5-[(dimethylamino)methyl]furfuryl]thio]ethyl]-N'-(1,4-cyclohexadienyl-2-methyl)-2-nitro-1,1-ethenediamine], in data set [3], the “LD50, mouse, intram. admin.” value is recorded as 310 mg/kg; the “LD50, mouse, intrav. admin.” value is listed as 90 mg/kg; the “LD50, mouse, oral admin.” value is 2700 mg/kg. Moreover, in data set [4], the “LD50, rat, intram. admin.” value was 2100 mg/kg and the “LD50, rat, intrav. admin.” value turned out to be 110 mg/kg. For the same molecule, the “LD50, rat, oral admin.” value in data set [4] (oral) came to 5510.0 mg/kg.

For the molecule `CN(C)Cc1ccc(CSCCNC(=C[N+](=O)[O-])N2CCCCCC2)o1` [AU/013, 1-N-[2-[[5-[(dimethylamino)methyl]furfuryl]thio]ethyl]-amino-1-hexamethyleneimino-2-nitroethene], the LD50 at 240 h was 300 mg/kg in data set [1] (setting [6]); 90 mg/kg in data set [1] (setting [7]); 2700 mg/kg in data set [1] (setting [8]); 2100 mg/kg in data set [2] (setting [9]); 100 mg/kg in data set [2] (setting [10]); 5530 mg/kg in data set [2] (setting [11]).

With `CN(C)Cc1ccc(CSCCNC(=C[N+](=O)[O-])NN2CCCCCC2)o1` [AU/014, N-[2-[[5-[(dimethylamino)methyl]furfuryl]thio]ethyl]-N'-(hexamethyleneimino)-2-nitro-1,1-ethenediamine], the LD50 at 240 h in data set [1] (setting [6]) was 300 mg/kg; in data set [1] (setting [7]) it was 90 mg/kg; in data set [1] (setting [8]) it was 2600 mg/kg; in data set [2] (setting [9]) it was 2200 mg/kg; in data set [2] (setting [10]), 100 mg/kg.

Take `CN(C)Cc1ccc(CSCCNC(=C[N+](=O)[O-])NC2CCCCCC2)o1` [AU/015, N-[2-[[5-[(dimethylamino)methyl]furfuryl]thio]ethyl]-N'-cycloheptyl-2-nitro-1,1-ethenediamine]: the LD50 at 240 h in data set [1] (setting [6]) turned out to be 300 mg/kg; in data set [1] (setting [7]), 100 mg/kg; in data set [1] (setting [8]), 2800 mg/kg; in data set [2] (setting [9]) it was 2200 mg/kg; in data set [2] (setting [10]), 100 mg/kg.

As for `CN(C)Cc1ccc(CSCCNC(=C[N+](=O)[O-])NC2CCCC2)o1` [AU/016, N-[2-[[5-[(dimethylamino)methyl]furfuryl]thio]ethyl]-N'-cyclopentyl-2-nitro-1,1-ethenediamine], the LD50 at 240 h in data set [1] (setting [6]) was 300 mg/kg; in data set [1] (setting [7]), 90 mg/kg; in data set [1] (setting [8]), 2700 mg/kg; in data set [2] (setting [9]) it was 2200 mg/kg; in data set [2] (setting [10]) it was 100 mg/kg.

`CN(C)Cc1ccc(CSCCNC(=C[N+](=O)[O-])N2CCCC2)o1` [AU/017, 1-N-[2-[[5-[(dimethylamino)methyl]furfuryl]thio]ethyl]-amino-1-pyrrolidino-2-nitroethene]: the 50% lethal dose (LD50) at 240 h in data set [1] (setting [6]) came to 300 mg/kg; in data set [1] (setting [7]), 100 mg/kg; in data set [1] (setting [8]), 2600 mg/kg; in data set [2] (setting [9]), 2200 mg/kg; in data set [2] (setting [10]), 100 mg/kg.

Take `CN(C)Cc1ccc(CSCCNC(=C[N+](=O)[O-])N2CCOCC2)o1` [AU/018, 1-N-[2-[[5-[(dimethylamino)methyl]furfuryl]thio]ethyl]-amino-1-morpholino-2-nitroethene]: the LD50 at 240 h turned out to be 350 mg/kg in data set [1] (setting [6]); 90 mg/kg in data set [1] (setting [7]); 2700 mg/kg in data set [1] (setting [8]); 2200 mg/kg in data set [2] (setting [9]); 100 mg/kg in data set [2] (setting [10]).

For `CN(C)Cc1ccc(CSCCNC(=C[N+](=O)[O-])NC2CC3C=CC2C3)o1` (stereo not drawn) [AU/020], the LD50 at 240 h in data set [1] (setting [6]) was determined as 300 mg/kg; in data set [1] (setting [7]), 110 mg/kg; in data set [1] (setting [8]) it was 2700 mg/kg; in data set [2] (setting [9]) it was 2100 mg/kg; in data set [2] (setting [10]) it was 110 mg/kg.

Regarding `CN/C(=N/CCSCc1nc[nH]c1C)NC#N` [cimetidine], the “Inhibition of incidence of gastric ulcers induced by ligature of the pylorus” value in data set [5] is recorded as “significantly inhibit the incidence of gastric ulcers”.

In the case of `CNC(=C[N+](=O)[O-])NCCSCc1ccc(CN(C)C)o1` [ranitidine], the “Inhibition of incidence of gastric ulcers induced by ligature of the pylorus” value in data set [5] is “significantly inhibit the incidence of gastric ulcers”.

As to “N-[2-[[5-[(dimethylamino)methyl]furfuryl]thio]ethyl]-N'-(1,4-cyclohexadienyl-2-ethyl)-2-nitro-1,1-ethenediamine [AU/012]”, in data set [3], the “LD50, mouse, intram. admin.” value is reported as 300 mg/kg; the “LD50, mouse, intrav. admin.” value came to 90 mg/kg; the “LD50, mouse, oral admin.” value is given as 2800 mg/kg. Also, in data set [4], the “LD50, rat, intram. admin.” value is 2100 mg/kg and the “LD50, rat, intrav. admin.” value was found to be 110 mg/kg.
